From patent publication US11951105B2 (Lake O'Hara LLC, priority 2020, dated 2024)

Tests used:
[1] = brexpiprazole patients; cited from earlier work
[2] = cited from earlier work
CYP2D6 = conditions: cited from earlier work
[3] = PBPK modeling of schizophrenia patients treated according to modified dosing regimens; set-up: species or system human; conditions: for Days Reduced to Reach Pharmacokinetic Endpoints: EC80 / Days Reduced to Reach Pharmacokinetic Endpoints: Steady State: modified regimen of Table F vs FDA label, Obese
Excerpt: In order to simulate brexpiprazole under various conditions, a whole-body PBPK model was constructed to capture the drug's kinetics in major tissues. Model tissue compartments included adipose, bone, brain, large intestine, small intestine, heart, kidney, liver, lung, muscle, spleen, stomach, and skin tissues, as well as venous and arterial blood compartments. In order to accurately capture first-pass clearance effects on the drug, the model also included correct representation of the gastrointestinal tract organs and the liver. […] Drug distribution into each tissue compartment was modeled assuming perfusion-limited kinetics, with partitioning into tissue described by a partition coefficient (Kp) estimated using methods described by Poulin and Theil (2002). Brexpiprazole-specific biochemical parameters such as the log of octanol:water partition coefficient (log P), negative log acid dissociation constant (pKa), fraction unbound in the plasma (fup), blood:plasma concentration ratio (BP), and clearance were obtained from literature; additional physiochemical properties used to calculate Kps were obtained via DrugBank. […] Simulations were carried out in a virtual population of 500 normal-weight and 500 obese individuals with age- and sex-specific physiological parameters (i.e. tissue flows and volumes) sampled from the National Health and Nutrition Examination Survey (NHANES) dataset.
PBPK Modeling of Schizophrenia Patients Treated with Higher Doses According to Modified Methods
A modified dosing regimen was developed so that obese and CYP2D6 PM patients reach therapeutic levels earlier (Table F). […] On day 8, patients returned to administering the recommended dose once daily. […] On day 15, patients returned to administering the recommended dose once daily.

CYP3A4 = CYP3A4 (Homo sapiens, UniProt P08684); conditions: based on the literature; cited from earlier work
Chain of CYP3A4 (P08684 whole entry): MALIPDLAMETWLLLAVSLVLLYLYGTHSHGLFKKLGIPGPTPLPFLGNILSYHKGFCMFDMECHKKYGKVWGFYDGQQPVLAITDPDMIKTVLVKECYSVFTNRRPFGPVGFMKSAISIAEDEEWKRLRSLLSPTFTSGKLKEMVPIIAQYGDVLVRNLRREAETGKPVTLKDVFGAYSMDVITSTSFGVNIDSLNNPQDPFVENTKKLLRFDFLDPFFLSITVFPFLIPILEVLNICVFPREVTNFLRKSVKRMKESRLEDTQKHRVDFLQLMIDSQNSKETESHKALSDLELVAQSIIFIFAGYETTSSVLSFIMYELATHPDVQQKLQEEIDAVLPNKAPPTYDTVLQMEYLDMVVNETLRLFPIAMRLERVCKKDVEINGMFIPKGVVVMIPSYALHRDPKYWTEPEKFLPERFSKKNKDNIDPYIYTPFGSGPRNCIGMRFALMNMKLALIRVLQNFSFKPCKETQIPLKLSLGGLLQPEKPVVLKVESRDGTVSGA

Structure (SMILES): O=c1ccc2ccc(OCCCCN3CCN(c4cccc5sccc45)CC3)cc2[nH]1 [brexpiprazole, 7-{4-[4-(1-Benzothiophen-4-yl)piperazin-1-yl]butoxy}quinolin-2(1H)-one]
- akathisia rates [1]: dose-dependent
- share of brexpiprazole clearance due to other routes ([2]; based on the literature): 10%
- effect of weight on the pharmacokinetics of brexpiprazole ([2]; previous studies): less than 20%
- renal clearance ([2]; share of clearance, model assumption): ~1%
- decrease of baseline clearance by CYP2D6 PM status (CYP2D6; CYP2D6 poor metabolizers): ~30%
- share of brexpiprazole clearance due to CYP2D6 (CYP2D6; based on the literature): 43.3%
- Days Reduced to Reach Pharmacokinetic Endpoints: EC80 ([3]; CYP2D6 EM): 3 days
- Days Reduced to Reach Pharmacokinetic Endpoints: Steady State ([3]; CYP2D6 EM): -4 days
- Days Reduced to Reach Pharmacokinetic Endpoints: EC80 ([3]; CYP2D6 PM): 5 days
- Days Reduced to Reach Pharmacokinetic Endpoints: Steady State ([3]; CYP2D6 PM): -29 days
- days faster to reach therapeutic concentrations than once daily dosing ([3]; schizophrenia, normal-weight CYP2D6 PM, Modified Dosing Regimen 3): three
- days faster to reach therapeutic concentrations than with FDA label dosing ([3]; schizophrenia, obese CYP2D6 EM, twice the daily doses for the first 7 days (Regimen 1)): three
- days faster to reach therapeutic concentrations than once daily dosing ([3]; schizophrenia, obese CYP2D6 PM, twice the daily doses for the first 14 days (Regimen 2)): five
- share of brexpiprazole clearance due to CYP3A4 (CYP3A4): 46.7%
